This is an account of results in patent US5095018A, “3-benzyl-1,2,4-triazolo[4,3-α] pyrazines” (Burroughs Wellcome Co., priority 1989, dated 1992).

Read-outs that look alike come from different tables or passages of the source.

The assay can be described thus: standard maximal electroshock test (MES), anticonvulsant activity. The following applies: HCl salt. The class given is in vivo. The protocol: The anticonvulsant activity of certain compounds of the present invention were determined by a standard maximal electroshock test (MES); that described by L. A. Woodbury and V. D. Davenport, Arch. Int. Pharmacodyn, 1952, 92 95.
(In the maximal electroshock model the usual endpoint is tonic extension of the hind limbs.)

Where [1] appears, read: ip, intraperitoneal (I.P.), read-out: ED50 I.P.
Setting [2] is: oral (P.O.), read-out: ED50 P.O.

In the case of `Nc1nccn2c(Cc3c(F)cccc3F)nnc12` [Example 9, 8-amino-3-(2,6-difluorobenzyl)-1,2,4-triazolo[4,3-a]pyrazine], the ED50 (in general, the dose that gives a 50% effect, or the effect in half of the subjects) is, setting by setting: under setting [1], 3.1 mg/kg; under setting [2], 7.1 mg/kg.

In the case of `CNc1nccn2c(Cc3cc(F)ccc3F)nnc12` [Example 6, 3-(2,5-difluorobenzyl)-8-(methylamino)-1,2,4-triazolo[4,3-a]pyrazine], the ED50 was determined as 4 mg/kg under setting [1] and 10.2 mg/kg under setting [2].

For `CNc1nccn2c(Cc3ccc(F)cc3)nnc12` [Example 5, 3-(4-fluorobenzyl)-8-(methylamino)-1,2,4-triazolo[4,3-a]pyrazine], the ED50 under setting [1] came to 25 mg/kg. Regarding `Fc1cccc(F)c1Cc1nnc2c(NC3CC3)nccn12` [Example 10, 8-(cyclopropylamino)-3-(2,6-difluorobenzyl)-1,2,4-triazolo[4,3-a]pyrazine], the ED50 under setting [1] was 7.2 mg/kg. On to `CNc1nccn2c(Cc3c(F)cccc3F)nnc12` [Example 8, 3-(2,6-difluorobenzyl)-8-(methylamino)-1,2,4-triazolo[4,3-a]pyrazine], for which the ED50 stood at 2 mg/kg under setting [1] and 3 mg/kg under setting [2]. As to `CNc1nccn2c(Cc3cccc(F)c3)nnc12` [Example 4, 3-(3-fluorobenzyl)-8-(methylamino)-1,2,4-triazolo[4,3-a]pyrazine], the ED50 under setting [1] turned out to be 4.1 mg/kg and the ED50 under setting [2] is 20.4 mg/kg. With `Nc1nccn2c(Cc3ccccc3F)nnc12` [Example 2, 8-amino-3-(2-fluorobenzyl)-1,2,4-triazolo[4,3-a]pyrazine], the ED50 stood at 9.4 mg/kg under setting [1] and 8 mg/kg under setting [2]. As for `CNc1nccn2c(Cc3ccccc3F)nnc12` [Example 1, 3-(2-fluorobenzyl)-8-(methylamino)-1,2,4-triazolo[4,3-a]pyrazine], the ED50 runs as follows: under setting [1], 4.1 mg/kg; under setting [2], 8.3 mg/kg. With `CNc1nccn2c(Cc3ccccc3)nnc12` [Example 3, 3-Benzyl-8-(methylamino)-1,2,4-triazolo[4,3-a]pyrazine], the ED50 came out at 6.2 mg/kg under setting [1] and 15.6 mg/kg under setting [2]. For the molecule `Nc1nccn2c(Cc3cc(F)ccc3F)nnc12` [Example 7, 8-amino-3-(2,5-difluorobenzyl)-1,2,4-triazolo[4,3-a]pyrazine], the ED50 is 7.1 mg/kg under setting [1] and 20.4 mg/kg under setting [2]. For `Fc1ccccc1Cc1nnc2c(NC3CC3)nccn12` [Example 11, 8-(cyclopropylamino)-3-(2-fluorobenzyl)-1,2,4-triazolo[4,3-a]pyrazine], the ED50 under setting [1] was found to be 9.4 mg/kg.
